Test results from patent publication US20260062426A1, “CYCLIN DEPENDENT KINASE DEGRADERS AND METHODS OF USE THEREOF” (Differentiated Therapeutics Inc, priority 2023, published 2026).

What was measured:
Type in all cases: cell-based
[1] = biological target: T1, CDK2 (Homo sapiens, UniProt P24941); test: CDK2 HIBIT PQ (protein quantification), degradation; settings: for CDK2 HIBIT PQ Max (%): Max = Maximum; for DC50: PQ = Protein Quantification
T1 construct: host or cells: HEK293
How it was run: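 After overnight incubation at 37° C and 5% CO2 in 384-well plates (1.6×10^5 cells/well, 50 uL, DMEM with 10% FBS), HEK293 cells with HiBiT-tagged CDK2 were treated with compound for 6 hours. Detection used 20 μL of Nano-Glo HiBiT lytic reagent with LgBiT protein, 20 minutes of shaking at room temperature and an EnVision reading, with 0.1% DMSO as high control and medium alone as low control. These readings were the basis for DC50 and maximal degradation.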

[2] = biological target: T2, CDK9 (Homo sapiens, UniProt P50750); test: CDK9 HIBIT PQ (protein quantification), degradation; settings: for Dmax: Max = Maximum; for DC50: PQ = Protein Quantification
T2 construct: host or cells: HEK293
T2 sequence (P50750 whole entry): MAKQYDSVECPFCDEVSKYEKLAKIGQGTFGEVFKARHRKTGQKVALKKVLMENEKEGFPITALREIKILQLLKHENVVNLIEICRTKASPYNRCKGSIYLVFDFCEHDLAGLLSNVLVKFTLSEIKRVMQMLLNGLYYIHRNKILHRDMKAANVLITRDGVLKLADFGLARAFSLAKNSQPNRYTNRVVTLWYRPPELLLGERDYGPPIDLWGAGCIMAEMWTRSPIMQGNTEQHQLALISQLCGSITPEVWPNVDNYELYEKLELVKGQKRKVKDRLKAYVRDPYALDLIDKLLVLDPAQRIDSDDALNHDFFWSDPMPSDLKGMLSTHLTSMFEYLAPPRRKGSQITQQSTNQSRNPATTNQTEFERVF
How it was run: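 CDK9 protein was read by HiBiT assay in treated HEK293 cells carrying HiBiT-tagged CDK9, seeded at 1.6×10^5 cells/well in 50 uL in 384-well plates and incubated overnight at 37° C and 5% CO2. Controls were 0.1% DMSO-treated cells (high) and culture medium only (low). Maximal degradation, Dmax and DC50 were calculated from these readings.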

[3] = biological target: T3, CCNE1 (Homo sapiens, UniProt P24864+P24941); test: CCNE1 HIBIT PQ (protein quantification), degradation; settings: for CCNE1 HIBIT PQ Max (%): Max = Maximum; for DC50: PQ = Protein Quantification
T3 construct: host or cells: HEK293
How it was run: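 HEK293 cells with HiBiT-tagged CCNE1 were cultured in EMEM containing 10% FBS, plated at 1.6×10⁵ cells/well in 50 uL in 384-well plates and left overnight at 37° C with 5% CO₂. After 6 hours of compound exposure, a HiBiT assay measured CCNE1 protein, with 0.1% DMSO-treated cells as the high control and medium alone as the low control. DC50 and maximal degradation came from these readings.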

Row | SMILES | CDK2 HIBIT PQ Max (%) [1] [%] | DC50 [1] [nM] | Dmax [2] [%] | CCNE1 HIBIT PQ Max (%) [3] [%] | DC50 [3] [nM] | DC50 [2] [nM]
1 | CC(C)Oc1c(-c2cn[nH]c2)ncn2nc(Nc3ccc(S(=O)(=O)N(C)CCCN4CCC(c5cccc6c(N7CCC(=O)NC7=O)nn(C)c56)CC4)cc3F)nc12 [Compound 24] | 94 | 0.6 | 14 | 88 | 3.14 | 
2 | CC(C)Oc1c(-c2cn[nH]c2)ncn2nc(Nc3ccc(S(=O)(=O)c4cccc(CN5C6CC5CN(c5ccc7c(N8CCC(=O)NC8=O)nn(C)c7c5)C6)c4)cc3F)nc12 [Compound 45] | 85 | 4.3 | -10 | 33 |  | 
3 | CC(C)Oc1c(-c2cn[nH]c2)ncn2nc(Nc3ccc(S(=O)(=O)c4cccc(CN5CC6(C5)CN(c5ccc7c(c5)CN(C5CCC(=O)NC5=O)C7=O)C6)c4)cc3F)nc12 (racemic) [Compound 10] | 86 | 3.76 | 54 | 60 | 10.6 | 25.5
4 | CC(C)Oc1c(-c2cn[nH]c2)ncn2nc(Nc3ccc(S(=O)(=O)N(C)CCCN4CCC(c5cccc6c5n(C)c(=O)n6C5CCC(=O)NC5=O)CC4)cc3F)nc12 (racemic) [Compound 18] | 90 | 0.6 | 87 | 82 | 0.64 | 2.19
5 | CC(C)Oc1c(-c2cn[nH]c2)ncn2nc(Nc3ccc(S(=O)(=O)c4cccc(CN5CC(c6ccc7c(N8CCC(=O)NC8=O)nn(C)c7c6)C5)c4)cc3F)nc12 [Compound 78] | 85 | 2 | 12 | 36 |  | 
6 | CC(C)Oc1c(-c2cn[nH]c2)ncn2nc(Nc3ccc(S(=O)(=O)c4cccc(CN5CCC(c6ccc7c(c6)n(C)c(=O)n7C6CCC(=O)NC6=O)CC5)c4)cc3F)nc12 (racemic) [Compound 25] | 81 | 0.2 | 41 | 21 |  | 
7 | CC(C)Oc1c(-c2cn[nH]c2)ncn2nc(Nc3ccc(S(=O)(=O)N(C)CCCN4CCN(c5ccc6c(c5)n(C)c(=O)n6C5CCC(=O)NC5=O)C[C@@H]4C)cc3F)nc12 (stereo partly drawn) [Compound 62] | 91 | 0.1 | 75 | 65 | 0.92 | 1.22
8 | CC(C)Oc1c(-c2cn[nH]c2)ncn2nc(Nc3ccc(S(=O)(=O)c4cccc(C[C@H]5C[C@@H](c6ccc7c(c6)CN(C6CCC(=O)NC6=O)C7=O)C5)c4)cc3F)nc12 (stereo partly drawn) [Compound 29, 3-{1-oxo-5-[(1s,3s)-3-{[3-(3-fluoro-4-{[8-isopropoxy-7-(1H-pyrazol-4-yl)-[1,2,4]triazolo[1,5-c]pyrimidin-2-yl]amino}benzenesulfonyl)phenyl]methyl}cyclobutyl]-3H-isoindol-2-yl}piperidine-2,6-dione] | 94 | 8 | 12 | 78 | 18.7 | 
9 | CC(C)Oc1c(-c2cn[nH]c2)ncn2nc(Nc3ccc(S(=O)(=O)N(C)CCCN4CCN(c5ccc6c(c5)n(C)c(=O)n6C5CCC(=O)NC5=O)CC4(C)C)cc3F)nc12 (racemic) [Compound 67] | 92 | < 0.152 | 91 | 73 | 1.08 | 1.52
10 | CC(C)Oc1c(-c2cn[nH]c2)ncn2nc(Nc3ccc(S(=O)(=O)c4cccc(C[C@H]5C[C@@H](c6ccc7c(c6)CN([C@H]6CCC(=O)NC6=O)C7=O)C5)c4)cc3F)nc12 (stereo in doubt) [Compound 81, (S)-3-(5-((1r,3R)-3-(3-((3-fluoro-4-((8-isopropoxy-7-(1H-pyrazol-4-yl)-[1,2,4]triazolo[1,5-c]pyrimidin-2-yl)amino)phenyl)sulfonyl)benzyl)cyclobutyl)-1-oxoisoindolin-2-yl)piperidine-2,6-dione] | 86 | 24.2 | 1 | 57 | 62.8 | 
11 | CC(C)Oc1c(-c2cn[nH]c2)ncn2nc(NC3CCN(S(=O)(=O)N4CCC(CN5CCC(c6cccc7c6n(C)c(=O)n7C6CCC(=O)NC6=O)CC5)CC4)CC3)nc12 (racemic) [Compound 6, rac-(R)-3-(4-(1-((1-((4-((8-isopropoxy-7-(1H-pyrazol-4-yl)-[1,2,4]triazolo[1,5-c]pyrimidin-2-yl)amino)piperidin-1-yl)sulfonyl)piperidin-4-yl)methyl)piperidin-4-yl)-3-methyl-2-oxo-2,3-dihydro-1H-benzo[d]imidazol-1-yl)piperidine-2,6-dione] | 80 | 0.59 | 103 | 73 | 0.88 | 1.48
12 | CC(C)Oc1c(-c2cn[nH]c2)ncn2nc(Nc3ccc(S(=O)(=O)c4cccc(CN5CCN(c6cc7c(cc6F)C(=O)N(C6CCC(=O)NC6=O)C7)CC5)c4)cc3F)nc12 (racemic) [Compound 11] | 90 | 2.25 | 50 | 65 | 14.4 | 
13 | CC(C)Oc1c(-c2cn[nH]c2)ncn2nc(Nc3ccc(S(=O)(=O)N(C)CCCN4CCC(c5cccc6c5n(C)c(=O)n6C5CCC(=O)N(C)C5=O)CC4)cc3F)nc12 (racemic) [Compound 28] | 6 |  | 2 | 0 |  | 
14 | CC(C)Oc1c(-c2cn[nH]c2)ncn2nc(N[C@H]3CCN(S(=O)(=O)c4cccc(CN5CCN(c6ccc7c(N8CCC(=O)NC8=O)nn(C)c7c6)CC5C)c4)C[C@H]3C)nc12 (stereo partly drawn) [Compound 51] | 98 | 2.4 | 100 | 92 | 9.29 | 20.2
15 | CC(C)Oc1c(-c2cn[nH]c2)ncn2nc(Nc3ccc(S(=O)(=O)N4CCCC(CN5CCN(c6ccc7c(N8CCC(=O)NC8=O)nn(C)c7c6)C6CC65)C4)cc3F)nc12 (stereo not drawn) [Compound 88] | 61 | 6.5 | 18 | 25 |  | 
16 | CC(C)Oc1c(-c2cn[nH]c2)ncn2nc(Nc3ccc(S(=O)(=O)N(C)CCCN4C5CC4CN(c4ccc6c(c4)n(C)c(=O)n6C4CCC(=O)NC4=O)C5)cc3F)nc12 (stereo not drawn) [Compound 70] | 61 | 0.3 | 9 | 20 |  | 
17 | CC(C)Oc1c(-c2cn[nH]c2)ncn2nc(Nc3ccc(S(=O)(=O)c4cccc(CN5CCN(c6ccc7c(N8CCC(=O)NC8=O)nn(C)c7c6)C6CC65)c4)cc3F)nc12 (stereo not drawn) [Compound 44] | 92 | 3.5 | 15 | 39 |  | 
18 | CC(C)Oc1c(-c2cn[nH]c2)ncn2nc(Nc3ccc(S(=O)(=O)c4cccc(CN5CCC(c6cccc7c6n(C)c(=O)n7C6CCC(=O)NC6=O)CC5)c4)cc3F)nc12 (racemic) [Compound 13] | 85 | 0.42 | 53 | 44 |  | 6.6
19 | CC(C)Oc1c(-c2cn[nH]c2)ncn2nc(Nc3ccc(S(=O)(=O)c4cccc(CN5CCN(c6ccc7c(N8CCC(=O)NC8=O)nn(C)c7c6)CC5C(C)C)c4)cc3F)nc12 (single isomer, unassigned) [Compound 106] | 94 | 8.3 |  | 59 | 39.4 | 
20 | CC(C)Oc1c(-c2cn[nH]c2)ncn2nc(Nc3ccc(S(=O)(=O)c4cccc(CN5CCN(c6ccc7c(N8CCC(=O)NC8=O)nn(C)c7c6)CC5C(C)C)c4)cc3F)nc12 (single isomer, unassigned) [Compound 107] | 93 | 12 |  | 71 | 63.1 | 
